Like-named read-outs stand apart in the source and are kept apart here.
How the values were obtained:
[1] = tested on: HepG2 human hepatocyte cell line; experiment: In vitro cytotoxicity evaluation HepG2 (MTT); type: cell-based
Protocol: (§1) For all molecules, the selectivity index was calculated as following SI = CC50/EC50.
(§2) Triplicate assays were performed for each sample. Each plate-well was then microscopically examined for possible precipitate formation before the medium was aspirated from the wells. Next, 100 µL of MTT (3-(4,5-dimethyl-2-thiazolyl)-2,5-diphenyl -2H-tetrazolium bromide) solution (0.5 mg/mL in medium without FBS) was added to each well. […] After this time, the MTT solution was removed and DMSO (100 μL) was added to dissolve the resulting blue formazan crystals. Plates were shaken vigorously (700 rpm) for 10 min. The absorbance was measured at 570 nm with 630 nm as reference wavelength using a BIO-TEK ELx808 Absorbance Microplate Reader (LabX, Midland, ON, Canada). DMSO was used as blank and doxorubicin (purchased from Sigma Aldrich) as positive control. Cell viability was calculated as a percentage of control (cells incubated without compound). […] CC50 values to represent the mean value calculated from three independent experiments.

[2] = tested on: K1 chloroquine and pyrimethamine-resistant P. falciparum strain; experiment: In vitro antiplasmodial evaluation (SYBR Green I); type: cell-based, Plasmodium falciparum; settings: for EC50: K1 strain, 72 h incubation, three independent experiments, read-out: EC50 PfK1 (µM) ± SD; for SI (selectivity index): SI = CC50 HepG2/EC50 PfK1
Protocol: as §1
It was maintained in continuous culture, as described previously by Trager and Jensen. Cultures were maintained in fresh A+ human erythrocytes at 2.5% hematocrit in complete medium (RPMI 1640 with 25 mM HEPES, 25 mM NaHCO3, 10% of A+ human serum) at 37 °C under reduced O2 atmosphere (gas mixture 10% O2, 5% CO2, and 85% N2). Parasitemia was maintained daily between 1 and 3%. The P. falciparum drug susceptibility test was carried out by comparing quantities of DNA in treated and control cultures of parasite in human erythrocytes according to an SYBR Green I fluorescence-based method using a 96-well fluorescence plate reader. Compounds, previously dissolved in DMSO (final concentration less than 0.5% v/v), were incubated in a total assay volume of 200 μL (RPMI, 2% hematocrit and 0.4% parasitemia) for 72 h in a humidified atmosphere (10% O2 and 5% CO2) at 37 °C, in 96-well flat bottom plates. Duplicate assays were performed for each sample. After incubation, plates were frozen at […] for 24 h. Then, the frozen plates were thawed for 1 h at 37 °C. Fifteen µL of each sample were transferred to 96-well flat bottom non-sterile black plates (Greiner Bio-one, Kremsmünster, Austria), already containing 15 µL of the SYBR Green I lysis buffer (2X SYBR Green I, 20 mM Tris base pH 7.5, 20 mM EDTA, 0.008% w/v saponin, 0.08% w/v Triton X-100). […] Plates were incubated for 15 min at 37 °C and then read on a TECAN Infinite F-200 spectrophotometer with excitation and emission wavelengths at 485 and 535 nm, respectively.

[3] = Aqueous solubility in the cell culture medium; type: physicochemical
Protocol: It appeared that the cluttered derivatives (3q, 3s) and the 2-chlorophenoxy derivative (3b) were the less cytotoxic compounds.
The HepG2 cell line was maintained at 37 °C, 5% CO2, at 90% humidity in MEM supplemented with 10% fetal bovine serum, 1% L-glutamine (200 mM), and penicillin (100 U/mL)/streptomycin (100 μg/mL) (complete RPMI medium). The cytotoxicity of the tested molecules on the HepG2 (hepatocarcinoma cell line purchased from ATCC, ref HB-8065) cell line was assessed according to the method of Mosmann with slight modifications. Briefly, 5.10^3 cells in 100 μL of complete medium were inoculated into each well of 96-well plates and incubated at 37 °C in humidified 5% CO2. After 24 h incubation, 100 μL of medium with various product concentrations dissolved in DMSO (final concentration less than 0.5% v/v) were added and the plates were incubated for 72 h at 37 °C. Triplicate assays were performed for each sample. Each plate-well was then microscopically examined for possible precipitate formation before the medium was aspirated from the wells. Next, 100 µL of MTT (3-(4,5-dimethyl-2-thiazolyl)-2,5-diphenyl -2H-tetrazolium bromide) solution (0.5 mg/mL in medium without FBS) was added to each well. Cells were incubated for 2 h at 37 °C. After this time, the MTT solution was removed and DMSO (100 μL) was added to dissolve the resulting blue formazan crystals. Plates were shaken vigorously (700 rpm) for 10 min. The absorbance was measured at 570 nm with 630 nm as reference wavelength using a BIO-TEK ELx808 Absorbance Microplate Reader (LabX, Midland, ON, Canada). DMSO was used as blank and doxorubicin (purchased from Sigma Aldrich) as positive control. Cell viability was calculated as a percentage of control (cells incubated without compound). […] CC50 values to represent the mean value calculated from three independent experiments.

[4] = In vitro cytotoxicity evaluation HepG2 (MTT); type: cell-based, human; settings: human, CC50 HepG2 (µM) ± SD
Protocol: as §1, §2

[5] = tested on: P. falciparum (NF135 strain) hepatic exoerythrocytic forms; experiment: Liver stage development in infected primary human hepatocytes; type: cell-based, Plasmodium falciparum; settings: 3i 0.9-30 µM, ATQ 25 nM; 6 or 12 days post-infection
Protocol: The effect of (3i) on the hepatic stage of P. falciparum was next studied in order to know if (3i) was active against another stage of P. falciparum cycle. Cryopreserved primary human hepatocytes were infected with 30,000 freshly extracted P. falciparum sporozoites and simultaneously treated with a dose range (0.9–30 µM) of (3i). Atovaquone (ATQ) was used as a positive parasite-killing control at 25 nM.
P. falciparum (NF135 strain) sporozoites were isolated by dissection of the salivary glands of infected A. stephensi 14–21 days after an infective blood meal (Department of medical microbiology, University Medical Centre, St Radboud, Nijmegen Netherland). All infected salivary glands were removed by hand dissection, crushed in a potter for sporozoites isolation, and filtrated through a 40 μm filter to remove mosquito debris (Cell Strainer, BD BioSciences, Franklin Lakes, NJ, USA). The sporozoites were counted using a disposable Glasstic microscope slide (KOVA, Garden Grove, CA, USA).
One day before hepatocyte thawing, 96-well plates were coated by a Corning®® collagen solution (50 µg/mL rat tail type I collagen in 0.02N acid acetic) over night at room temperature. The next day, the wells were washed twice by PBS solution. Cryopreserved primary human hepatocytes (LONZA, Basel, Swiss) were seeded in 96-well plates with a pre-determined seeding dose that gave a single dense layer of attached hepatocytes. Four days post-seeding, each plate well was infected with 30,000 freshly extracted Plasmodium falciparum sporozoites. […]
Hepatocyte cultures were fixed with 4% paraformaldehyde solution (PFA, Invitrogen) for 10 min. […] Images were analyzed and prepared with ImageJ software. Apicoplast morphology was observed and quantified by eye under a confocal microscope.
Upon immunostaining of parasites, the study plates were scanned using a CellInsight high-content screening platform equipped with the Studio HCS software (Thermo Fisher Scientific, Waltham, MA, USA). […] The number of host hepatocyte nuclei per well was counted by the system as a measure of toxicity of 3i towards the liver cells. […]

[6] = tested on: Pf3D7 (3D7 chloroquine-sensitive strain); settings: Figure 2; cited from earlier work
[7] = tested on: HepG2; settings: Figure 2; cited from earlier work
[8] = Plasmodium falciparum, K1, 72 h

## 2-(Naphthalen-2-yloxy)-3-trichloromethylquinoxaline [3q]
[1]
  CC50: 53100 ± 7600 nM
[2]
  EC50: 0.6 ± 0.1 µM

## ClC(Cl)(Cl)c1nc2ccccc2nc1Oc1cccc(-c2ccccc2)c1 [3t, 2-([1,1′-Biphenyl]-3-yloxy)-3-trichloromethylquinoxaline]
[3]
  Aqueous solubility in the cell culture medium: poor aqueous solubility
[4]
  CC50 at 72 h: > 31.2 µM
[2]; [8]
  EC50: 0.5 ± 0.05 µM
[2]
  SI (selectivity index): >62.5

## O=C1C(O)=C([C@H]2CC[C@H](c3ccc(Cl)cc3)CC2)C(=O)c2ccccc21 [ATQ, Atovaquone, reference compound]
[5]
  Effect on exoerythrocytic forms (EEF or schizont) size and numbers: completely clear all parasites from the culture

## FS(F)(F)(F)(F)c1ccc(Oc2nc3ccccc3nc2C(Cl)(Cl)Cl)cc1 [3l, 2-Trichloromethyl-3-[4-(pentafluorosulfanyl)phenoxy]quinoxaline]
[4]
  CC50 at 72 h: 15.4 µM
[1]; human, 72 h
  CC50: 16600 ± 3900 nM
[2]; [8]
  EC50: 0.2 ± 0.03 µM
[2]
  SI (selectivity index): 83.0
other
  melting point: 99 °C

## 2-(Naphthalen-1-yloxy)-3-trichloromethylquinoxaline [3r]
[3]
  Aqueous solubility in the cell culture medium: poor aqueous solubility
[1]
  CC50: > 31200 nM
[2]
  EC50: 0.4 ± 0.08 µM

## Fc1ccccc1Oc1nc2ccccc2nc1C(Cl)(Cl)Cl [3e, 2-(2-Fluorophenoxy)-3-trichloromethylquinoxaline]
[3]
  Aqueous solubility in the cell culture medium: poor aqueous solubility
[4]
  CC50 at 72 h: > 15.6 µM
[2]; [8]
  EC50: 0.64 ± 0.14 µM
[2]
  SI (selectivity index): >24.4
other
  melting point: 138 °C

## ClC(Cl)(Cl)c1nc2ccccc2nc1Oc1ccc(-c2ccccc2)cc1 [3s, 2-([1,1′-Biphenyl]-4-yloxy)-3-trichloromethylquinoxaline]
[3]
  Aqueous solubility in the cell culture medium: poor aqueous solubility
[4]
  CC50 at 72 h: > 62.5 µM
[2]; [8]
  EC50: 0.6 ± 0.1 µM
[2]
  SI (selectivity index): >104.2
other
  melting point: 160 °C

## COc1ccc(Oc2nc3ccccc3nc2C(Cl)(Cl)Cl)cc1 [3h, 2-(4-Methoxyphenoxy)-3-trichloromethylquinoxaline]
[3]
  Aqueous solubility in the cell culture medium: poor aqueous solubility
[4]
  CC50 at 72 h: > 7.8 µM
[2]; [8]
  EC50: 0.38 ± 0.08 µM
[2]
  SI (selectivity index): >20.6
other
  melting point: 171 °C

## N#Cc1ccc(Oc2nc3ccccc3nc2C(Cl)(Cl)Cl)cc1 [3n, 4-[(3-Trichloromethylquinoxalin-2-yl)oxy]benzonitrile]
[4]
  CC50 at 72 h: 16.6 µM
[1]; human, 72 h
  CC50: 15400 ± 2100 nM
[2]; [8]
  EC50: 0.2 µM
other
  melting point: 194 °C

## Brc1ccc(Nc2nc3ccccc3nc2Nc2ccc(Br)cc2)cc1 [MMV007224]
[6]
  EC50: 1060 nM
[7]
  CC50: 5100 nM

## ClC(Cl)(Cl)c1nc2ccccc2nc1Oc1ccccc1 [3a, 2-Phenoxy-3-trichloromethylquinoxaline]
[4]
  CC50 at 72 h: 45.3 ± 9.6 µM
[2]; [8]
  EC50: 0.47 ± 0.1 µM
[2]
  SI (selectivity index): 96.4
other
  melting point: 59 °C

## FC(F)(F)c1ccc(Oc2nc3ccccc3nc2C(Cl)(Cl)Cl)cc1 [3j, 2-Trichloromethyl-3-[4-(trifluoromethyl)phenoxy]quinoxaline]
[4]
  CC50 at 72 h: 28.3 ± 4.4 µM
[2]; [8]
  EC50: 0.3 ± 0.06 µM
[2]
  SI (selectivity index): 94.3
other
  melting point: 129 °C
